From US9289398B2, “Methods for the production of functional protein from DNA having a nonsense mutation and the treatment of disorders associated therewith” (PTC Therapeutics, Inc., priority 2006, dated 2016)

How the values were obtained:
[1] = Safety and compliance, additional DMD Phase 2 study (26 boys); format: in vivo, human
Experimental: An additional Phase 2 study was carried out as follows to evaluate 3-[5-(2-fluoro-phenyl)-[1,2,4]oxadiazol-3-yl]-benzoic acid safety, compliance, PK, effects on full-length muscle dystrophin protein expression, and clinical activity in patients with nonsense-mutation-mediated DMD.
3-[5-(2-fluoro-phenyl)-[1,2,4]oxadiazol-3-yl]-benzoic acid was administered orally for 28 days at dose levels of 4, 4, 8 mg/kg (low dose); 10, 10, 20 mg/kg (mid dose); and 20, 20, 40 mg/kg (high dose) after breakfast, lunch, and dinner, respectively. 26 boys (ages: 5-13 years; stop codons: 15 UGA, 6 UAG, 5 UAA; baseline serum CK: 8,645-49,500 IU; steroid use: 19/26) completed 3-[5-(2-fluoro-phenyl)-[1,2,4]oxadiazol-3-yl]-benzoic acid at the low (n=6) or mid (n=20) dose levels. […] Compliance was >98% for both dose levels. Day 1 and Day 28 PK indicate stable plasma exposures over time; however, exposures were lower than in 3-[5-(2-fluoro-phenyl)-[1,2,4]oxadiazol-3-yl]-benzoic acid-treated healthy adult volunteers and cystic fibrosis patients. […] Relative to baseline, post-treatment increases in in vivo dystrophin expression occurred in 4/6 (67%) (90% CI 27-94%) and 10/20 (50%) (90% C1-30-70%) boys at low and mid doses, respectively.

CFTR = assay: Transepithelial potential difference (TEPD) chloride conductance, Phase 2 study in nonsense-mutation-mediated cystic fibrosis; format: in vivo, human
Experimental: The measurement of transepithelial potential difference (TEPD), also known as nasal potential difference, provides a sensitive evaluation of sodium and chloride transport directly in secretory epithelial cells via assessment of transepithelial bioelectric properties (Knowles et al., 1981, N. Engl. J. Med. 305(25):1489-95; Knowles et al., 1995, Hum. Gene Ther. 6:445). TEPD is performed in each nostril using standardized techniques (Standaert et al., 2004, Ped. Pulm. 37:385-92). In the procedure, a small plastic catheter is used to assess electrical differences across the outer cell membrane of nasal mucosa cells in the nostril. TEPD values are expressed in millivolts, or mV. A chloride conductance equal to or more electrically negative than −5.0 mV is generally considered to be in the normal range. […] TEPD assessments can also be made on rectal epithelial cells and lower respiratory epithelial cells. Because of the role of the CFTR protein in transporting chloride ions across cell membranes, and because of the absence of this protein, cystic fibrosis patients have an abnormal TEPD chloride conductance. As an endpoint, TEPD has the advantage that it can detect chloride transport changes that are a quantitative integration of the presence, functional activity, and apical location of the CFTR in airway cells. Furthermore, it is a direct measure of CFTR activity that is not likely to be affected by supportive or palliative treatments for CF (with the possible exception of systemically administered aminoglycoside antibiotics). Of importance is evidence that TEPD values can correlate with the degree of pulmonary dysfunction and radiographic abnormality (Ho et al., 1997, Eur. Respir. J. 10(9):2018-22; Fajac et al., 1998, Eur. Respir. J. 12(6):1295-300; Sermet-Gaudelus et al., 2005, Am. J. Respit. Crit. Care Med. 171(9):1026-1031). […] Under baseline conditions, TEPD-assessed chloride channel activity is very unlikely to normalize spontaneously in patients with CF; any observed improvements in TEPD-assessed chloride channel activity are expected to specifically denote pharmacological activity of CFTR-correcting therapies. Accordingly, it has become the primary endpoint in Phase 1-2 pharmacological and gene replacement studies aimed at correcting CFTR dysfunction (Peckham et al., 1995, AJ. Clin Sci (London). 89(3):277-84; Wilschanski et al., 2003, N. Engl. J. Med. 349(15):1433-41).
3-[5-(2-Fluoro-phenyl)-[1,2,4]oxadiazol-3-yl]-benzoic acid was provided in a formulation described herein.
Clinical endpoints were evaluated using the procedures set forth above. TEPD measurements were made prior to treatment and on days 14 and 28 of Cycle 1 and Cycle 2. Nasal mucosal curettage was collected from each nostril of each patient prior to treatment and on days 14 and 28 of Cycle 1 and Cycle 2. Pulmonary tests, including FEV1, FVC and MEF25-75, were measured prior to treatment, on day −1 of Cycle 2, on day 13 or 14 of Cycle 1 and day 13 or 14 of Cycle 2 in the study being conducted in Israel and the same parameters were measured prior to treatment and on day 13 or 14 of Cycle 2 in the study being conducted in the United States.
This is the average of the changes from the beginning to the end of the treatment period in TEPD chloride conductance within each study participant. For example, if the changes in TEPD chloride conductance within each of three participants were −7.0 mV, −2.0 mV and −9.0 mV, the mean change in TEPD chloride conductance among these participants would be −6.0 mV.
For purposes of the trials, a chloride conductance response is defined as a TEPD chloride conductance improvement of at least −5 mV. For example, in a patient with a TEPD chloride conductance value of +1.0 my at baseline and a TEPD chloride conductance value of −6.0 mV at the end of treatment, the TEPD chloride conductance improvement would be −7.0 mV, representing a chloride conductance response. […]

[2] = Higher dose level 10, 10, 20 mg/kg TID oral 14 days, 15 CF patients
[3] = Lower dose level 4, 4, 8 mg/kg TID oral 14 days, 15 CF patients

Structure (SMILES): O=C(O)c1cccc(-c2noc(-c3ccccc3F)n2)c1 [3-[5-(2-fluoro-phenyl)-[1,2,4]oxadiazol-3-yl]-benzoic acid]
- Severity of adverse events and laboratory abnormalities ([1]; 26 boys, low (n=6) or mid (n=20) dose, 28 days oral): mild-moderate
- Dose relation of adverse events and laboratory abnormalities ([1]; low 4, 4, 8 mg/kg versus mid 10, 10, 20 mg/kg): no dose-related changes in frequency or severity
- TEPD chloride conductance in patients with different types of nonsense mutations within the CFTR gene (CFTR; 15 CF patients): Improvements in TEPD chloride conductance
- Mean change in TEPD chloride conductance: Best of nostrils (CFTR; [2]): −6.4 mV
- Mean change in TEPD chloride conductance: Mean of both nostrils (CFTR; [2]): −4.4 mV
- Mean change in TEPD chloride conductance: Best of nostrils (CFTR; [3]): −9.0 mV
- Mean change in TEPD chloride conductance: Mean of both nostrils (CFTR; [3]): −6.7 mV
- Treatment effects at the lower and the higher dose levels (TEPD chloride conductance) (CFTR; lower 4, 4, 8 mg/kg versus higher 10, 10, 20 mg/kg): not statistically significant
